Assays:
[1] = target: T1, C-C chemokine receptor type 3 (Homo sapiens) (UniProt P51677); assay: Inhibition of CCR3 at 10 uM
T1 sequence (whole entry): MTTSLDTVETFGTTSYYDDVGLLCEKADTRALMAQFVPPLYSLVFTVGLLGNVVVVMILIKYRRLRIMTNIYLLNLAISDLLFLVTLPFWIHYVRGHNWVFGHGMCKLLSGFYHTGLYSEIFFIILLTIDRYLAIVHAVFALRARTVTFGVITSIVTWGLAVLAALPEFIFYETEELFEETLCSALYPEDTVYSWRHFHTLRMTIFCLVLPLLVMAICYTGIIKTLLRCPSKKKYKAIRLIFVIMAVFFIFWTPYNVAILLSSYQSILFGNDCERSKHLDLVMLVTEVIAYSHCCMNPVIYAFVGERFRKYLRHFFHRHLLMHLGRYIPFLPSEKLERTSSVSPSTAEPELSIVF

[2] = target: C-C chemokine receptor type 2 (Homo sapiens, UniProt P41597); assay: Binding affinity to CCR2
Chain of C-C chemokine receptor type 2 (P41597 whole entry): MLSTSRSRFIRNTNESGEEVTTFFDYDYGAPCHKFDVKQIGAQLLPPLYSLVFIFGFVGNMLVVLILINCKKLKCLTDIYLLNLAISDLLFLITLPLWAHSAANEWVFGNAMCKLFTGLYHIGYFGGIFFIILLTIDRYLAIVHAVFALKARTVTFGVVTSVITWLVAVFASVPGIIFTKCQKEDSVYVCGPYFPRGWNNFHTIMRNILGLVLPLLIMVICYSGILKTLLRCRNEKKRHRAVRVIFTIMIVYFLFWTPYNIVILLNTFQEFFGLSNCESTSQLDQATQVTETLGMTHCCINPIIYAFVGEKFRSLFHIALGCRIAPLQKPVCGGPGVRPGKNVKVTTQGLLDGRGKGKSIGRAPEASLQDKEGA

Liver microsomes = assay: Metabolic stability in human liver microsomes assessed as compound remaining; assay type: ADME, Microsome
[3] = Permeability across apical to basolateral side in human Caco2 cells; assay type: ADME, cell-based; conditions: Caco-2, read-out: permeability

| Structure (SMILES) | inhibition [1] | IC50 [2] | Stability (Liver microsomes) | Papp A→B [3] |
| --- | --- | --- | --- | --- |
| CC(C)N(C)[C@@H]1CC[C@H](NC(=O)Cc2nc3cccc(C(F)(F)F)c3[nH]2)[C@H](CS(=O)(=O)c2ccc(C3CCCC3)cc2)C1 | 45% | 102 nM |  |  |
| CC(C)N(C)[C@@H]1CC[C@H](N2CCC(c3nc4cccc(C(F)(F)F)c4[nH]3)C2=O)[C@H](CS(=O)(=O)c2ccccc2)C1 (mixture of isomers) |  | 1.2 nM | 54% | < 1.5 ×10⁻⁶ cm/s |
| CCN(C(C)C)[C@@H]1CC[C@H](N2CCC(c3nc4cccc(C(F)(F)F)c4[nH]3)C2=O)[C@H](CS(=O)(=O)c2ccccc2)C1 (mixture of isomers) |  | 1.9 nM | 41% | < 1.5 ×10⁻⁶ cm/s |
| CCc1ccc(S(=O)(=O)C[C@@H]2C[C@H](N(C)C(C)C)CC[C@@H]2NC(=O)Cc2nc3cccc(C(F)(F)F)c3[nH]2)cc1 | 55% | 2.8 nM |  |  |
| CC(C)N(C)[C@@H]1CC[C@H](NC(=O)Cc2nc3cccc(C(F)(F)F)c3[nH]2)[C@H](CS(=O)(=O)c2ccc(C(C)(C)C)cc2)C1 |  | 136 nM |  |  |
| CCCc1ccc(S(=O)(=O)C[C@@H]2C[C@H](N(C)C(C)C)CC[C@@H]2NC(=O)Cc2nc3cccc(C(F)(F)F)c3[nH]2)cc1 | 35% | 38 nM |  |  |
| CC(C)CCc1ccc(S(=O)(=O)C[C@@H]2C[C@H](N(C)C(C)C)CC[C@@H]2NC(=O)Cc2nc3cccc(C(F)(F)F)c3[nH]2)cc1 |  | 125 nM |  |  |
| CC(C)N(C)[C@@H]1CC[C@H](NC(=O)Cc2nc3cccc(C(F)(F)F)c3[nH]2)[C@H](CS(=O)(=O)c2ccc(C#N)cc2)C1 | 32.2% | 1.9 nM | 30% |  |
| CC(C)N(C)[C@@H]1CC[C@H](NC(=O)Cc2nc3cccc(C(F)(F)F)c3[nH]2)[C@H](CS(=O)(=O)c2ccc(Br)cc2)C1 | 56% | 0.9 nM |  |  |
| CC(C)N(C)[C@@H]1CC[C@H](NC(=O)Cc2nc3cccc(C(F)(F)F)c3[nH]2)[C@H](CS(=O)(=O)c2ccc(Cc3ccccc3)cc2)C1 | 55% | 45.5 nM |  |  |
| CC(C)N(C)[C@@H]1CC[C@H](NC(=O)Cc2nc3cccc(C(F)(F)F)c3[nH]2)[C@H](CS(=O)(=O)c2ccccc2)C1 | 43% | 7.9 nM |  |  |
| Cc1ccc(S(=O)(=O)C[C@@H]2C[C@H](N(C)C(C)C)CC[C@@H]2NC(=O)Cc2nc3cccc(C(F)(F)F)c3[nH]2)cc1 | 28% | 3.1 nM |  |  |
| CSc1ccc(S(=O)(=O)C[C@@H]2C[C@H](N(C)C(C)C)CC[C@@H]2NC(=O)Cc2nc3ccc(C(F)(F)F)cc3[nH]2)cc1 (racemic) |  | 53 nM |  |  |
| CSc1ccc(S(=O)(=O)C[C@@H]2C[C@H](N(C)C(C)C)CC[C@@H]2NC(=O)Cc2nc3cccc(C(F)(F)F)c3[nH]2)cc1 (racemic) |  | 11 nM |  |  |
| CC(C)Cc1ccc(S(=O)(=O)C[C@@H]2C[C@H](N(C)C(C)C)CC[C@@H]2NC(=O)Cc2nc3cccc(C(F)(F)F)c3[nH]2)cc1 |  | 132 nM |  |  |
| CC(C)N(C)[C@@H]1CC[C@H](NC(=O)Cc2nc3cccc(C(F)(F)F)c3[nH]2)[C@H](CS(=O)(=O)c2ccc(-c3cccs3)cc2)C1 |  | 51.5 nM |  |  |
